One data set concerns RAS. Details: method as in earlier work. The conditions noted are these: RAS antagonist, ref Reif et al., 1999, Katzav et al., 2001, Clarke et al., 2003, 2004, Kafri et al., 2005, Nevo et al., 2011, Rokni et al., 2022; cited from earlier work.
For data set [1], the system named is COL1A1. The experiment in a line: COL1A1 expression in TGF-β1 stimulated hHOs (western blot, immunocytochemistry). Type of data set: cell-based, human. The conditions noted are these: 5 ng/ml TGF-β1 for 24 h, SB202190 10 μM, TAC 10 μM, Sirolimus 200 nM. Here is the method:
Immunofluorescence staining of hHOs was conducted as previously described. hHOs were fixed by 4% PFA solution for 45–60 min at room temperature and incubated in blocking/permeabilization solution containing 10% normal donkey serum (Abcam), 0.5% Triton X-100 (nacalai tesque) and 0.5% BSA (nacalai tesque) at 4°C overnight. Subsequently, hHOs were stained with primary and secondary antibodies in PBS containing 1% normal donkey serum, 0.5% Triton X-100 and 0.5% BSA, respectively. Nuclei were stained with Hoechst 33342 (1:1000) before mounting. A confocal laser scanning microscope (Olympus FV3000) was used for fluorescent observation. Primary antibodies used are listed as follows: anti-Vimentin (1:200, ab11256, Abcam); anti-Collagen I (1:200, ab34710, Abcam); anti-WT1 (1:200, ab89901, Abcam); anti-ZO-1 (1:200, 33-9100, Invitrogen); anti-CD31/PECAM1 (1:50, ab28364, Abcam); anti-Cardiac Troponin T (1:200, ab8295, Abcam); anti-NFAT2 (1:200, ab25916, Abcam); anti-CD90/THY1 (1:200, ab133350, Abcam). […]
Cells were lysed in M-PER Mammalian Protein Extraction Reagent (78501, Thermo Scientific) buffer, and hHOs were lysed in T-PER Tissue Protein Extraction Reagent (78510, Thermo Scientific). The amount of protein was determined by Bradford assay using BSA as a standard. […]
In general terms: A western blot detects proteins with antibodies after separation by electrophoresis.

The nature of data set [2]: Cytotoxic assay in cardiac fibroblasts (crystal violet, 96 h). In kind it is cell-based. The conditions noted are these: human, human ventricular cardiac fibroblasts (NHCF-V), NHCF-V cell line, read-out: IC50 (cytotoxicity, CF viability). Here is the method: SB202190, Tacrolimus, and Sirolimus were freshly and individually prepared in DMSO for each individual experiment. Cardiac fibroblasts were seeded individually in 96-well plates (5,000 cells per well). The treatment effectiveness was assayed after applying reducing concentrations in a 1:2 fixed ratio to cycling cells in the exponential phase. All treatments were assessed within reducing doses of SB202190, Tacrolimus, or Sirolimus in monotherapy or combination in fixed proportions a day after the seeding. The proliferation viability was determined by crystal violet after 96 h. Cytotoxicity profiles were measured by absorbance at 595 nm using a microplate reader; then, IC50 values were estimated using GraphPad Prism 7 software.

Data set [3] deals with iPSC-derived human heart organoids (hHOs). In words: Cardiotoxicity MTT assay in iPSC-derived human heart organoids (96 h). The conditions noted are these: hHOs day 15, MTT, read-out: IC50 (hHO cellular viability). In kind it is cell-based. Here is the method: SB202190, Tacrolimus, and Sirolimus were prepared alone or in combinations mixed in DMSO for each experiment. hHOs were differentiated and seeded separately in low-binding 96-w plates. The effectiveness of the treatment was measured after the usage of decreasing concentrations in a 1:2 ratio to day 15 of developing heart organoids. All treatments were applied by reducing dosages of SB202190, Tacrolimus, or Sirolimus in monotherapy or combination. The proliferation capacity as a functional assay was determined using an MTT assay after 96 h (4 days). Cytotoxicity profiling was drafted by obtaining absorbance metrics at 595 nm using a particular microplate reader; then, IC50 values were calculated using GraphPad Prism 7.
A general note: Tetrazolium assays rely on reduction of a dye to a coloured formazan, in cell work by metabolically active cells.

The next data set has as its system hHO spontaneous beating. The experiment in a line: Organoid beating evaluation (beating count vs untreated organoid). The conditions noted are these: hHOs, 96 h. Type of data set: cell-based, human. The source says:
For organoid beating evaluation, we measured the beating count at 10 s intervals and then compared it to the beating count of the untreated organoid for each case in biological triplicates.

Data set [4] deals with COL1A1. In words: COL1A1 expression in NHCF-V cardiac fibroblasts (western blot, immunocytochemistry). In kind it is cell-based, human. The conditions noted are these: for COL1A1 protein expression: 5 ng/ml TGF-β1 for 24 h, SB202190 10 μM, TAC 10 μM, Sirolimus 200 nM.
Experimental: Cells were fixed by 4% PFA treatment for 15 min and stored in PBS at 4°C. Blocking was performed for 30–45 min in a blocking buffer containing 1% BSA, 0.5% Triton X-100 and 0.1 M glycine in PBS. After washing three times with PBS, primary antibody anti-Collagen I (1:200, ab34710, Abcam) was added to the blocking buffer (w/o glycine) and incubated overnight at 4°C. The next day, cells were washed three times with PBS, and secondary antibody donkey anti-rabbit Alexa Fluro 594 (1:1000, A21207, Invitrogen) was added in 1% BSA-PBS for 2 h at RT. After washing three times with PBS, 1:10,000 Hoechst 33342 was added for nuclear counterstaining. Images were taken with Keyence.
After 3 days of treatment on unstimulated CFs, we treated cells with 5 ng/ml of TGF-β1 in combination with the inhibitors for another 24 h to recapitulate pathological conditions of heart disease and induced a forced expression of ECMs, with a particular focus on COL1A1 as a major component of the Collagen type I.
In data set [5] the test system is mTORC1 downstream targets p4E-BP1 and pS6K. The experiment in a line: Western blot for pathway targets in NHCF-V. In kind it is cell-based, human. The conditions noted are these: 200 nM. Here is the method: (§1) Cells were lysed in M-PER Mammalian Protein Extraction Reagent (78501, Thermo Scientific) buffer, and hHOs were lysed in T-PER Tissue Protein Extraction Reagent (78510, Thermo Scientific). The amount of protein was determined by Bradford assay using BSA as a standard. The primary antibodies were purchased from commercial sources as follows: anti-phospho-S6 Ribosomal Protein (1:1000, 5364, CST); anti-phospho-4E-BP1 (1:1000, 2855, CST); anti-4E-BP1 (1:1000, 9644, CST); anti-phospho-p38 (1:1000, 4631, CST); anti-p38 (1:1000, 9212, CST); anti-phospho-AKT (1:1000, 9271, CST); anti-Collagen I (1:1000, ab34710, abcam); anti-IL-11 (1:1000, ab76589, abcam); anti-β-actin (1:1000, A5441, Sigma). The secondary antibodies used are as follows: goat anti-rabbit IgG (HRP) (1:5000, sc-2054, Santa cruz), and anti-mouse IgG (HRP) (1:5000, 7076, CST).

For the next data set, the system named is IL-11 and phospho-p38. The experiment in a line: Western blot for IL-11 and phospho-p38 in TGF-β1 stimulated hHOs. Type of data set: cell-based, human. Here is the method:
as §1

For `CC(C)=CCC/C(C)=C/CC/C(C)=C/CSc1ccccc1C(=O)O` [FTS, Farnesythiosalicylic acid], in the data set with RAS, the “inflammation and fibrosis in animal models” value was “decreasing inflammation and fibrosis in animal models”.

With `Oc1ccc(-c2nc(-c3ccncc3)c(-c3ccc(F)cc3)[nH]2)cc1` [SB202190], the “TGF-β1 driven COL1A1 expression / ECM depositions” value in the data set on COL1A1 [1] was “effectively reduced TGF-β1 driven COL1A1 expression”. In data set [2], the IC50 at 96 h worked out at 13.9 µM. Also, the IC50 in data set [3] came to 72.4 µM. For the same compound, the “safe dosages preserving average beating rates compared to untreated organoids (from ... downwards)” value in the data set on hHO spontaneous beating was not above 100 µM. In addition, the COL1A1 protein expression result in the data set with COL1A1 [4] is given as “independent effect in reducing COL1A1 protein expression”.

As for `CO[C@H]1C[C@@H]2CC[C@@H](C)[C@@](O)(O2)C(=O)C(=O)N2CCCC[C@H]2C(=O)O[C@H]([C@H](C)C[C@@H]2CC[C@@H](O)[C@H](OC)C2)CC(=O)[C@H](C)/C=C(\C)[C@@H](O)[C@@H](OC)C(=O)[C@H](C)C[C@H](C)/C=C/C=C/C=C/1C` [Sirolimus], in data set [5], the “inhibition of mTORC1 downstream targets p4E-BP1 and pS6K” value was “inhibit the mTORC1 downstream targets p4E-BP1 and pS6K”. Besides, in the data set with COL1A1 [1], the “TGF-β1 driven COL1A1 expression / ECM depositions” value is listed as “this phenotype is lost in heart organoids”. Further, in data set [2], the IC50 at 96 h is 3.54 ± 0.2 µM. Also, the IC50 in data set [3] was 5.01 ± 0.4 µM. Besides, the “levels of IL-11 and phospho-p38” value with IL-11 and phospho-p38 is “rescued levels of IL-11 and phospho-p38”. In the data set on hHO spontaneous beating, the “safe dosages preserving average beating rates compared to untreated organoids (from ... downwards)” value was not above 2.5 µM. For the same compound, in the data set with COL1A1 [4], the COL1A1 protein expression entry is “independent effect in reducing COL1A1 protein expression”.

With `C=CC[C@@H]1/C=C(\C)C[C@H](C)C[C@H](OC)[C@H]2O[C@@](O)(C(=O)C(=O)N3CCCC[C@H]3C(=O)O[C@H](/C(C)=C/[C@@H]3CC[C@@H](O)[C@H](OC)C3)[C@H](C)[C@@H](O)CC1=O)[C@H](C)C[C@@H]2OC` [Tacrolimus], in data set [2], the IC50 at 96 h was 12.6 µM. The IC50 in data set [3] was determined as 19.9 µM. The “safe dosages preserving average beating rates compared to untreated organoids (from ... downwards)” value in the data set with hHO spontaneous beating is not above 12 µM. For the same compound, in the data set with COL1A1 [4], the COL1A1 protein expression entry is given as “no effect”. In addition, the “COL1A1 levels in TGF-β1 unstimulated condition” value with COL1A1 [4] (unstimulated, western blot) is “mildly increase COL1A1 levels”.

As a reminder, the IC50 is the concentration that gives 50% inhibition.
